We go through 88 compounds from a melting point compilation (Tetko et al.; mined from patent text by program, amines drawn as free bases though some values may be those of a salt).

What is called melting point is the temperature of the solid-liquid transition.

For the compound `CCCCC[C@H]1CC[C@H](CCCCc2ccc(O)cc2)CC1`, the melting point was determined as 86 °C.

`COc1cc(C=C2C(=O)NC(=O)N2C)cc(OC)c1O` displayed a melting point of 194 to 196 °C.

In turn, `O=C(O)CCc1cn(Cc2ccc(OCc3cccs3)cc2)cc1-c1ccccc1` gave a melting point of 127 to 128 °C.

The compound `CN=C(NS(=O)(=O)c1ccc(Cl)cc1)SC` displayed a melting point of 121 to 123 °C.

`COc1ccc(N2CCOCC2)c2sc(C(=O)NCC(=O)c3cccs3)nc12` registered a melting point of 165 °C.

For `Cn1cc(-c2ccccc2)c(=O)c(-c2cccc(C#N)c2)c1`, the melting point fell in the range of 164 to 166 °C.

`CCCCP(CCCC)(CCCC)=C1CC(=O)OC1=O` gave a melting point of 70 °C.

In turn, `CCC(=O)Oc1ccc2c(c1)CCC1C2CCC2(C)C1CC(O)C2NC` (stereo not drawn) returned a melting point of 182 to 185 °C.

In the case of `Cc1nc(-c2cc3cc(OCCNC[C@@H](O)c4csc(C(F)(F)F)n4)ccc3o2)no1`, the melting point was in the range of 143 to 146 °C.

Compound `Cc1nc2ccccc2c(NCC(C)O)c1Br` (stereo not drawn) returned a melting point of 147 to 149 °C.

On to `CCOC(=O)C(=CNc1ccc(OC)c(F)c1)C(=O)OCC`, for which the melting point amounted to 63 °C.

For the compound `COc1ccc2c(C(C)=O)noc2c1`, the melting point lay in the range of 64 to 67 °C.

With `CC(COc1ccc(C(N)=O)c(O)c1)NCC(O)COc1cccc2c1CCC(=O)N2` (stereo not drawn), the melting point lay in the range of 239 to 245 °C.

`OCC#CC1=Cc2ccccc2Sc2ccc(Cl)cc21` showed a melting point of 111 to 113 °C.

The compound `NC(=O)c1nnn(Cc2cccc(Cl)c2Cl)c1N` displayed a melting point of 224 to 226 °C.

`COc1ccc(NC(=O)/C=C/c2c(F)c(F)c(F)c(F)c2F)cc1[N+](=O)[O-]` gave a melting point of 265 to 266 °C.

With `CCON(C(=O)Cc1c(C)cc(Cl)cc1C)C1(C#N)CCN(OC)CC1`, the melting point was in the range of 100 to 103 °C.

Compound `CCC1C(=O)NC1C=COC(C)=O` (stereo not drawn) displayed a melting point of 102 °C.

With `COC(=O)c1ccc(-c2oc3nc[nH]c(=O)c3c2C(=O)OCc2ccccc2)cc1`, the melting point was 248 to 249 °C.

In turn, `COc1nc2ncccc2c2nc(S(=O)(=O)Nc3c(Cl)cccc3Cl)nn12` displayed a melting point of 290 to 293 °C.

For `C=CCC(CCC=NO)C1=C(O)CC(c2ccc(N)cc2)CC1=O` (stereo not drawn), the melting point worked out at 92 °C.

Regarding `Cc1c(C(=O)Nc2ccc(N3CCCN(CCO)CC3)c(C#N)c2)cnn1-c1ccc(F)cc1`, the melting point came to 124 °C.

The compound `O=C1CCCC(CNC(=O)c2cc(O)ccc2OCC(F)(F)F)N1` (stereo not drawn) yielded a melting point of 156 to 158 °C.

`COc1c(C2CCN(CCCCNC(=O)c3ccc(-c4ccc(C#N)s4)nc3)CC2)ccc2c1CCCC2` registered a melting point of 186 to 188 °C.

`O=C(OCC(Cl)(Cl)Cl)Oc1cc2occ(C(=O)O)c(=O)c2cc1OC(=O)OCC(Cl)(Cl)Cl`: the melting point fell in the range of 166 to 167 °C.

In the case of `CCOC(=O)c1cn2c(cc(OC(C)C)c3ccc(OC)cc32)n1`, the melting point was 117 to 118 °C.

Consider `CC1(C)CC(CNS(=O)(=O)c2ccc(Cl)cc2)(Cc2ccc(CC(=O)O)cc2)C1`, for which the melting point is 140 to 142 °C.

As to `CCSC(C)(C)C(=O)CC(=O)Nc1cc(NC(=O)CCCOc2ccc(C(C)(C)CC)cc2C(C)(C)CC)ccc1OC`, the melting point was 57 to 60 °C.

Take `COc1cc(NC(=O)Nc2ccc(C3CCN(C(=O)Nc4ccc(OCC(O)CO)cc4Cl)CC3)cc2)cc(OC)c1` (stereo not drawn): the melting point was 105 to 108 °C.

In the case of `O=c1[nH]c2cc(C(F)(F)F)c(N3CCOCC3)cc2n2c(=O)[nH]nc12`, the melting point was above 300 °C.

For the compound `CS(=O)(=O)c1ccc(-c2[nH]c(Br)c(Cl)c2-c2ccc(F)cc2)cc1`, the melting point is 206 to 209 °C.

The compound `N#Cc1cnn(-c2ccc(NN)nn2)c1N` showed a melting point of 264 to 266 °C.

As to `O=C(O)c1cc(CN2C(=O)C3(COc4cc5c(cc43)OCO5)c3ccccc32)oc1C(F)(F)F` (stereo not drawn), the melting point was 195 to 197 °C.

Consider `Cc1nc(Cl)c(C#N)cc1-c1ccccc1`, for which the melting point was in the range of 134 to 135 °C.

Compound `COCCCn1c(C(=O)O)cc2c3c(c(-c4ccccc4Cl)cc21)C(=O)NC3=O` gave a melting point of 272 to 274 °C.

For `COc1nc(Nc2ccc(C)cc2[N+](=O)[O-])nc(OC)n1`, the melting point fell in the range of 189 to 191 °C.

In the case of `CC(C)=C(c1ccc(C(=O)O)cc1)c1ccc2c(c1)C(C)(C)CCC2(C)C`, the melting point was 204 to 206 °C.

Consider `O=C(NCc1ccc2ccccc2c1)C1=C(C(=O)Nc2cc(OC3CCCC3)c(Cl)cc2F)CCCC1`, for which the melting point was 174 to 175 °C.

The compound `CCCn1nc(C(C)C)c(C(=O)OCOC(=O)C(C)(C)C)c1Cc1ccc(-c2ccccc2-c2nnn[nH]2)cc1` yielded a melting point of 62 to 67 °C.

As for `O=C1C2C3C=CC(C4CC34)C2C(=O)N1c1ccc([N+](=O)[O-])cc1` (stereo not drawn), the melting point fell in the range of 210 to 212 °C.

Take `OC(c1ccc(F)cc1)(c1ccc(F)cc1)C1CCNC1` (stereo not drawn): the melting point lay within 152 to 153 °C.

For `CCOC(=O)c1ccc(OCC(=O)c2ccc3c(c2)C(C)(C)CCC3(C)C)cc1`, the melting point was 105 to 107 °C.

The compound `O=c1oc(-c2ccc(F)cc2)nc2cccc(Cl)c12` had a melting point of 159 to 162 °C.

`CCCCCCCCc1ccc(C(=O)NN)cc1`: the melting point was found to be 90 °C.

`N#CC1CN1C(=O)CCC(N)=O` (stereo not drawn) yielded a melting point of 68 to 72 °C.

`CCOC(=O)c1sc(NC(C)=O)nc1CCl`: the melting point was 164 to 165 °C.

The compound `O=c1c2ncn3c2n(c(=O)n1Cc1ccc([N+](=O)[O-])cc1)CC=C3c1cccc(C(F)(F)F)c1` displayed a melting point of 230 to 232 °C.

Compound `CCOC(=O)c1ccc(OCCCCCCCCCCBr)cc1` displayed a melting point of 41 to 42 °C.

Take `CC(=O)NC[C@H]1CN(c2ccc(C3CCN(C(=O)COCc4ccccc4)CC3)c(F)c2)C(=O)O1`: the melting point lay within 147 to 149 °C.

Turning to `Nn1c(=O)c(=O)[nH]c2ccc3ccc([N+](=O)[O-])cc3c21`, the melting point was above 240 °C.

For `Cc1ccc(Nc2c3ccccc3nc3c(C)cccc23)cc1NC(=O)Oc1ccc(N(CCCl)CCCl)cc1`, the melting point lay in the range of 154 to 156 °C.

For the compound `COc1cc(-c2ccc(C(C)C)cc2)cc2oc(=O)c(Cl)c(C)c12`, the melting point was determined as 124 °C.

For `CCOC(=O)CC(=NNc1ccc(C(=O)O)cc1C)C(C)=O`, the melting point lay in the range of 161 to 162 °C.

`Cc1c(CC(=O)O)oc2ccc(-c3ccccc3)cc12`: the melting point was in the range of 173 to 174 °C.

In turn, `COc1ccc(-n2cnnc2S(C)(=O)=O)cc1` displayed a melting point of 191 °C.

The compound `CCC(Cc1cc(C(C)(C)C)c(O)c(C(C)(C)C)c1)(C(=O)OCC1(C)C(C)(C)C=C(O)CC1(C)C)C(=O)OCC1(C)C(C)(C)C=C(O)CC1(C)C` (stereo not drawn) returned a melting point of 166 °C.

In turn, `Nc1cccc2c3c([nH]c12)C=C(NC(=O)c1ccc(F)cc1)C=CC3` displayed a melting point of 121 to 122 °C.

For the compound `C#CCn1c2c(c(=O)n(-c3ccc(Cl)c(C(=O)OCC)c3)c1=O)CCC2`, the melting point fell in the range of 121 to 123 °C.

Consider `N#CCc1c(-c2ccccc2)sc2ccc(Cl)cc12`, for which the melting point fell in the range of 158 to 160 °C.

For `c1ccn(NC2=NCCN2)c1`, the melting point lay within 183 to 184 °C.

On to `C[C@@H]1OCCN(c2cc(N3CCOCC3)nc(-n3c(C(F)F)nc4ccccc43)n2)[C@@H]1C` (relative stereo), for which the melting point fell in the range of 167 to 169 °C.

`O=C(N[C@H]1CC[C@H](CCN2CCC(c3cccc4c3CCO4)CC2)CC1)c1ccc(Cl)cc1` yielded a melting point of 224 °C.

For `CC(C)c1cc(S(N)(=O)=O)c(C(C)C)cc1Br`, the melting point lay within 145 to 152 °C.

Consider `O=c1[nH]c(NCCSCc2nccs2)nnc1Cc1cccnc1`, for which the melting point lay within 158 to 159 °C.

`O=C(c1ccc(Cl)cc1)c1ccc2[nH]c(=O)nc(-c3cccc(Cl)c3)c2c1` showed a melting point of 256 °C.

For the compound `CCc1c(Cc2ccccc2)n(COCCO)c(=O)[nH]c1=O`, the melting point lay within 120 to 122 °C.

In turn, `Cc1oc(-c2ccccc2)nc1CC#Cc1ccc(CC(C(=O)O)c2ccc(-c3ccccc3)cc2)cc1` (stereo not drawn) displayed a melting point of 163 to 165 °C.

As for `O=C(Nc1cccnc1)N1CCN(c2nccc(-c3ccc(F)c(F)c3)n2)CC1`, the melting point lay in the range of 231 to 232 °C.

In turn, `CC(C)c1c(I)sc2ncc(C#N)c(Cl)c12` returned a melting point of 177 to 179 °C.

On to `O=C(O)COc1ccc(-c2c(Br)ccc3sc4ccccc4c23)cc1`, for which the melting point came to 210 °C.

As for `CCOC=Nc1noc(-c2cc(C(C)(C)C)c(O)c(C(C)(C)C)c2)n1`, the melting point lay within 159 to 161 °C.

Turning to `O=C(O)COc1cc2c(c(Cl)c1Cl)C(=O)C(c1ccc(F)cc1)C2` (stereo not drawn), the melting point was 189 to 190 °C.

For the compound `Cc1ccnc(C(=O)c2[nH]c3cc(Cl)c(Cl)cc3c2CC(=O)O)c1`, the melting point was 220 to 224 °C.

`O=C(NO)c1ccc(CNC(=O)c2[nH]c(-c3ccccc3)cc2-c2ccc(F)c(F)c2)cc1` showed a melting point of 148 to 150 °C.

As for `CCOC(=O)c1cn(C)c2cnc3cc(F)c(N4CCN(C(=O)CC(F)(F)F)C(c5ccc(OCc6ccccc6)c(OC)c5)C4)cc3c2c1=O` (stereo not drawn), the melting point amounted to 154 °C.

On to `CCOC(=O)c1cn2c(cc(-c3cccc(Cl)c3)c3cc(C(c4ccc(Cl)cc4)c4nncn4C)ccc32)n1` (stereo not drawn), for which the melting point is 220 °C.

The compound `c1cc(Oc2ccc3c(c2)CCCN3)ccn1` had a melting point of 117 to 122 °C.

`O=c1[nH]c2cc(Cl)ccc2c(O)c1-c1cccc2ccccc12`: the melting point is above 350 °C.

The compound `Cn1nc(C(F)(F)F)c(C(=O)O)c1Sc1ccc(F)cc1` had a melting point of 190 to 194 °C.

With `COc1ccc(C2=NN(C3CCN(S(=O)(=O)c4ccccc4C#N)CC3)C(=O)CC2)cc1OC`, the melting point was 158 to 160 °C.

The compound `CCN1C(=O)N=NC1c1ccc(Cl)cc1` (stereo not drawn) gave a melting point of 190 to 197 °C.

In turn, `O=C(O)CC1SCCOC1=O` (stereo not drawn) displayed a melting point of 96 to 98 °C.

Regarding `CN1Cc2c(Cl)ncn2-c2ccc(F)cc2C1=O`, the melting point lay within 217 to 218 °C.

On to `CC(C)(C)c1nc(C=O)nc(C(C)(C)C)c1O`, for which the melting point is 187 to 189 °C.

`CC(=O)Nc1c(I)c(C(N)=O)c(I)c(C(=O)NCC(=O)O)c1I` registered a melting point of 271 to 272 °C.

The compound `O=C(NCC(O)c1ccccc1)c1ccccc1` (stereo not drawn) showed a melting point of 140 to 143 °C.

Turning to `CC(C)c1nn(-c2ccc(Cl)cn2)cc1C=O`, the melting point was in the range of 69 to 70 °C.

The compound `C=CCN1C(=O)NC(=C(C(=O)OCC)C(=O)OCC)C1=O` showed a melting point of 91 to 92 °C.
